Assay results published in the supplement of paper PMC10307832.

How the values were obtained:
Assay in all cases: relative viability (nuclei count vs DMSO), 5 days (fraction); higher = more cells survive
A549 = system: A549
Outline: (§1)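 Five library-drug doses in √10 steps were combined with a fixed anchor-drug dose, or a single drug was given alone, by pin tool to lung cancer cell lines in 1536-well plates the day after seeding. Nuclei were stained and counted after 5 days. Relative viability is the nuclei count in treated wells over that in vehicle wells, taken as the median of duplicate plates.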

Calu-6 = system: Calu-6
Outline: as §1

EBC-1 = system: EBC-1
Outline: as §1

EMC-BAC-2 = system: EMC-BAC-2
Outline: as §1

HCC-366 = system: HCC-366
Outline: as §1

HCC-78 = system: HCC-78
Outline: as §1

IA-LM = system: IA-LM
Outline: as §1

LCLC-97TM1 = system: LCLC-97TM1
Outline: as §1

NCI-H1299 = system: NCI-H1299
Outline: as §1

NCI-H1395 = system: NCI-H1395
Outline: as §1

NCI-H1703 = system: NCI-H1703
Outline: as §1

Cc1cn(-c2cc(NC(=O)c3ccc(C)c(Nc4nccc(-c5cccnc5)n4)c3)cc(C(F)(F)F)c2)cn1 [Nilotinib] + CC1(C)CCC(c2ccc(Cl)cc2)=C(CN2CCN(c3ccc(C(=O)NS(=O)(=O)c4ccc(N[C@H](CCN5CCOCC5)CSc5ccccc5)c(S(=O)(=O)C(F)(F)F)c4)cc3)CC2)C1 [Navitoclax] (partner 0.5 µM)
relative viability (A549; first compound 0.001 µM): 1.2
relative viability (A549; first compound 0.003162 µM): 1.47
relative viability (A549; first compound 0.01 µM): 1.14
relative viability (A549; first compound 0.03162 µM): 0.789
relative viability (Calu-6; first compound 0.001 µM): 0.781
relative viability (Calu-6; first compound 0.003162 µM): 0.845
relative viability (Calu-6; first compound 0.01 µM): 1.05
relative viability (Calu-6; first compound 0.03162 µM): 0.641
relative viability (Calu-6; first compound 0.1 µM): 0.929
relative viability (EBC-1; first compound 0.001 µM): 0.351
relative viability (EBC-1; first compound 0.003162 µM): 0.373
relative viability (EBC-1; first compound 0.01 µM): 0.332
relative viability (EBC-1; first compound 0.03162 µM): 0.289
relative viability (EBC-1; first compound 0.1 µM): 0.186
relative viability (EMC-BAC-2; first compound 0.001 µM): 0.919
relative viability (EMC-BAC-2; first compound 0.003162 µM): 1.45
relative viability (EMC-BAC-2; first compound 0.01 µM): 1.69
relative viability (EMC-BAC-2; first compound 0.03162 µM): 0.852
relative viability (EMC-BAC-2; first compound 0.1 µM): 1.23
relative viability (HCC-366; first compound 0.001 µM): 1.07
relative viability (HCC-366; first compound 0.01 µM): 1.62
relative viability (HCC-366; first compound 0.03162 µM): 0.696
relative viability (HCC-366; first compound 0.1 µM): 0.744
relative viability (HCC-78; first compound 0.001 µM): 0.876
relative viability (HCC-78; first compound 0.003162 µM): 0.692
relative viability (HCC-78; first compound 0.01 µM): 0.945
relative viability (HCC-78; first compound 0.03162 µM): 0.724
relative viability (HCC-78; first compound 0.1 µM): 0.737
relative viability (IA-LM; first compound 0.001 µM): 0.499
relative viability (IA-LM; first compound 0.003162 µM): 0.603
relative viability (IA-LM; first compound 0.01 µM): 0.795
relative viability (IA-LM; first compound 0.03162 µM): 0.747
relative viability (IA-LM; first compound 0.1 µM): 0.889
relative viability (LCLC-97TM1; first compound 0.001 µM): 0.322
relative viability (LCLC-97TM1; first compound 0.003162 µM): 0.425
relative viability (LCLC-97TM1; first compound 0.01 µM): 0.478
relative viability (LCLC-97TM1; first compound 0.03162 µM): 0.445
relative viability (LCLC-97TM1; first compound 0.1 µM): 0.379
relative viability (NCI-H1299; first compound 0.003162 µM): 1.08
relative viability (NCI-H1299; first compound 0.01 µM): 1.13
relative viability (NCI-H1299; first compound 0.03162 µM): 1.07
relative viability (NCI-H1299; first compound 0.1 µM): 1.03
relative viability (NCI-H1395; first compound 0.001 µM): 1.03
relative viability (NCI-H1395; first compound 0.003162 µM): 0.815
relative viability (NCI-H1395; first compound 0.01 µM): 1.1
relative viability (NCI-H1395; first compound 0.03162 µM): 1.11
relative viability (NCI-H1395; first compound 0.1 µM): 1.05
relative viability (NCI-H1703; first compound 0.001 µM): 1.01
relative viability (NCI-H1703; first compound 0.003162 µM): 0.482
relative viability (NCI-H1703; first compound 0.01 µM): 0.325
relative viability (NCI-H1703; first compound 0.03162 µM): 0.229

Cc1cn(-c2cc(NC(=O)c3ccc(C)c(Nc4nccc(-c5cccnc5)n4)c3)cc(C(F)(F)F)c2)cn1 [Nilotinib] + CS(=O)(=O)N1CCN(Cc2cc3nc(-c4cccc5[nH]ncc45)nc(N4CCOCC4)c3s2)CC1 [Pictilisib] (partner 1 µM)
relative viability (A549; first compound 0.003162 µM): 0.743
relative viability (A549; first compound 0.01 µM): 0.6
relative viability (A549; first compound 0.03162 µM): 0.368
relative viability (A549; first compound 0.1 µM): 0.374
relative viability (Calu-6; first compound 0.001 µM): 0.893
relative viability (Calu-6; first compound 0.003162 µM): 0.919
relative viability (Calu-6; first compound 0.01 µM): 1.06
relative viability (Calu-6; first compound 0.03162 µM): 0.864
relative viability (Calu-6; first compound 0.1 µM): 0.827
relative viability (EBC-1; first compound 0.003162 µM): 0.287
relative viability (EBC-1; first compound 0.01 µM): 0.313
relative viability (EBC-1; first compound 0.03162 µM): 0.289
relative viability (EBC-1; first compound 0.1 µM): 0.253
relative viability (EMC-BAC-2; first compound 0.001 µM): 0.528
relative viability (EMC-BAC-2; first compound 0.003162 µM): 0.538
relative viability (EMC-BAC-2; first compound 0.01 µM): 0.606
relative viability (EMC-BAC-2; first compound 0.03162 µM): 0.486
relative viability (EMC-BAC-2; first compound 0.1 µM): 0.479
relative viability (HCC-366; first compound 0.001 µM): 0.161
relative viability (HCC-366; first compound 0.01 µM): 0.133
relative viability (HCC-366; first compound 0.03162 µM): 0.111
relative viability (HCC-366; first compound 0.1 µM): 0.137
relative viability (HCC-78; first compound 0.001 µM): 0.211
relative viability (HCC-78; first compound 0.003162 µM): 0.178
relative viability (HCC-78; first compound 0.01 µM): 0.198
relative viability (HCC-78; first compound 0.03162 µM): 0.202
relative viability (HCC-78; first compound 0.1 µM): 0.224
relative viability (IA-LM; first compound 0.001 µM): 0.36
relative viability (IA-LM; first compound 0.003162 µM): 0.431
relative viability (IA-LM; first compound 0.01 µM): 0.426
relative viability (IA-LM; first compound 0.03162 µM): 0.209
relative viability (IA-LM; first compound 0.1 µM): 0.41
relative viability (LCLC-97TM1; first compound 0.001 µM): 0.184
relative viability (LCLC-97TM1; first compound 0.003162 µM): 0.213
relative viability (LCLC-97TM1; first compound 0.01 µM): 0.16
relative viability (LCLC-97TM1; first compound 0.03162 µM): 0.167
relative viability (LCLC-97TM1; first compound 0.1 µM): 0.123
relative viability (NCI-H1299; first compound 0.001 µM): 0.611
relative viability (NCI-H1299; first compound 0.003162 µM): 1.12
relative viability (NCI-H1299; first compound 0.01 µM): 0.887
relative viability (NCI-H1299; first compound 0.03162 µM): 0.495
relative viability (NCI-H1299; first compound 0.1 µM): 0.396
relative viability (NCI-H1395; first compound 0.001 µM): 0.711
relative viability (NCI-H1395; first compound 0.003162 µM): 0.581
relative viability (NCI-H1395; first compound 0.01 µM): 0.566
relative viability (NCI-H1395; first compound 0.03162 µM): 0.552
relative viability (NCI-H1395; first compound 0.1 µM): 0.401
relative viability (NCI-H1703; first compound 0.001 µM): 0.225
relative viability (NCI-H1703; first compound 0.003162 µM): 0.291
relative viability (NCI-H1703; first compound 0.01 µM): 0.19
relative viability (NCI-H1703; first compound 0.03162 µM): 0.215
relative viability (NCI-H1703; first compound 0.1 µM): 0.196
